Values after ≈ are worked out from the molar mass of the structure shown. “Also recorded” adds a separate entry of the source.
Legend:
HT-29 (colon cancer) = test: MTT cytotoxicity assay, HT-29; format: cell-based; details: for IC50: Homo sapiens, HT-29, MTT, 72 h, mean ± SD of three replicates; for IC50 / SI (selectivity index) HT-29: isolated compounds; for antiproliferative/cytotoxic activity against HT-29 (in words): MTT assay; for SI (selectivity index) HT-29: IC50 HUVEC / IC50 HT-29
Protocol: (§1) The human cell lines MCF-7 (breast cancer), Ca Ski (cervical cancer), and HT-29 (colon cancer) were cultured as monolayer in RPMI 1640 growth media. HUVEC (human umbilical vein endothelial cells) and PC-3 (prostate cancer) cells were cultured in DMEM. All cells were purchased from the American Tissue Culture Collection (ATCC, USA) except for human umbilical vein endothelial cells (HUVEC) which were obtained from ScienCell Research Laboratories (Carlsbad, CA). All the media were supplemented with 10% v/v foetal bovine serum (FBS), 100 μg/mL penicillin/streptomycin, and 50 μg/mL amphotericin B. The cells were cultured in a 5% CO2 incubator at 37°C.
(§2) Cell viability was investigated using 3-(4, 5-dimethylthiazol-2-yl)-2, 5-diphenyltetrazolium bromide (MTT) assay. Cells were detached from the […] tissue culture flask when it achieved 80% confluency. The detached cells were pellet by centrifugation (1,000 rpm; 5 minutes). Cells (3.0 × 10^4 cells/mL) were seeded onto a 96-well microtiter plate (Nunc). The cells were incubated at 37°C CO2 incubator for 24 h to give adherent cells. The test compounds (1–100 μg/mL) were added onto the 96-well microtiter plate containing adherent cells. The untreated cells were incubated in 10% media containing 0.5% DMSO (without addition of any test compounds/extracts). This mixture was regarded as the negative control whereas doxorubicin as the positive control. The plates were incubated for 72 h at 37°C in a 5% CO2 incubator. After 72 h, the media were removed and 100 μL of fresh medium and 20 μL of MTT (Sigma, filter sterile, 5 mg/mL) were added to each well and further incubated for 4 hours (37°C) after which the media were substituted with 150 μL DMSO. The 96-well microtiter plates were then agitated at room temperature onto an incubator shaker to dissolve the formazan crystals. The absorbance (A) of the content of the plates was measured at 540 nm using a microplate reader. The percentage of inhibition of each test sample was calculated according to the following formula: Percentage of inhibition (%) = (A control − A sample)/A control × 100%. The average of three replicates was then obtained. The IC50 for each extract was extrapolated from the graphs of the percentage inhibition versus concentration of test agents. Cytotoxicity of each test agent is expressed as IC50 value. The IC50 value is the concentration of test agents that cause 50% inhibition or cell death, averaged from the three experiments. The selectivity index (SI) was also calculated as described by using the ratio between IC50 of the extract or compounds on normal cell lines (HUVEC) and IC50 of the tested extract or compounds on cancerous cell lines. Selectivity index (SI) values equal or greater than three were considered to have a high selectivity towards cancerous cells. An SI value denotes the selectivity of the sample to the tested cell lines.

PC-3 (prostate cancer) = test: MTT cytotoxicity assay, PC-3; format: cell-based; details: for IC50: Homo sapiens, MTT, 72 h, mean ± SD of three replicates; for IC50 / SI (selectivity index) PC-3: isolated compounds; for antiproliferative/cytotoxic activity against PC-3 (in words): MTT assay; for SI (selectivity index) PC-3: IC50 HUVEC / IC50 PC-3
Protocol: as §1, §2

MCF-7 cells [1] = test: Hoechst 33342/PI double staining, fluorescence microscopy; format: cell-based, human; details: 48 h, 12.5 and 25 μg/mL
Protocol: The morphological features of MCF-7 cells upon treatment by the test compounds also observed by double staining of Hoechst 33342/PI assay using the inverted fluorescence microscope (Leica, DM16000B). Briefly, 5 × 10^5 cells were grown overnight and treated with 12.5 and 25 μg/mL of curcumenone (3) and curcumenol (5). After treatment of cells with the test compounds for 48 hours, both floating and adherent cells were collected by centrifugation and washed once with cold PBS. Then, Hoechst 33342 solutions (10 μg/mL) were added and incubated at 37°C for 7 minutes. The cells were then stained with PI (2.5 μg/mL) and further incubated in the dark for 15 minutes. Cell suspension (100 μL) was mounted onto glass microscope slides and observed under fluorescence microscope using UV/488 dual excitation (460 nm emission of Hoechst 33342, 575 nm emission of PI). Approximately a total of 200 target cells were calculated and the morphological characteristics of the nuclei were analyzed for quantification of apoptosis and necrosis. The percentage of apoptotic, necrotic, and dead cells was determined according to the formula described by.

MCF-7 cells [2] = test: Phase contrast microscopy of treated MCF-7 cells; format: cell-based, human; details: 48 h; 12.5 and 25 µg/mL; inverted phase contrast microscope 400x
Protocol: Briefly, MCF-7 cells (5 × 10^5) were grown in a tissue culture dishes (60 mm) for overnight. Then, the cells were treated with curcumenone (3) and curcumenol (5) at a concentration of 12.5 and 25 μg/mL, respectively. After 48 hours, cells were gently rinsed with PBS. The observation of morphological changes of apoptotic MCF-7 cells after treatment with the two bioactive compounds was viewed using an inverted phase contrast microscope (Leica DMI 3000B, Germany) at 400x magnification according to the method.

P450 = tested on: P450; set-up: method as in PMID 20148399; details: time- and NADPH-dependent inhibitions; cited from earlier work
[3] = tested on: HUVEC (human umbilical vein endothelial cells); test: cells; format: cell-based; details: for IC50: Homo sapiens, HUVEC, isolated compounds, MTT, 72 h, normal cells; for toxicity towards normal cells HUVEC (in words): MTT assay
Protocol: as §1, §2

MCF-7 (breast cancer) = test: cells; format: cell-based; details: for IC50: Homo sapiens, MCF7, MTT, 72 h, mean ± SD of three replicates; for IC50 / SI (selectivity index) MCF-7: isolated compounds; for antiproliferative/cytotoxic activity against MCF-7 (in words): MTT assay; for SI (selectivity index) MCF-7: IC50 HUVEC / IC50 MCF-7
Protocol: as §1, §2

Ca Ski (cervical cancer) = test: cells; format: cell-based; details: for IC50: Homo sapiens, Ca-Ski, MTT, 72 h, mean ± SD of three replicates; for IC50 / SI (selectivity index) Ca Ski: isolated compounds; for SI (selectivity index) Ca Ski: IC50 HUVEC / IC50 Ca Ski
Protocol: as §1, §2

[4] = set-up: method as in PMID 23160092; details: cited from earlier work
[5] = tested on: liver alcohol dehydrogenase; set-up: method as in PMID 23160092; details: cited from earlier work
[6] = set-up: method as in PMID 9871681; details: cited from earlier work
[7] = set-up: method as in PMID 19043244; details: isolated from the rhizomes of Curcuma zedoaria; cited from earlier work

Row | Compound | IC50 (HT-29 (colon cancer)) [mg/L] | antiproliferative/cytotoxic activity against HT-29 (in words) (HT-29 (colon cancer)) | SI (selectivity index) HT-29 (HT-29 (colon cancer)) | IC50 (PC-3 (prostate cancer)) [mg/L] | antiproliferative/cytotoxic activity against PC-3 (in words) (PC-3 (prostate cancer)) | SI (selectivity index) PC-3 (PC-3 (prostate cancer)) | apoptosis induction (MCF-7 cells [1]) | morphological changes of MCF-7 cells (MCF-7 cells [2]) | IC50 [3] [mg/L] | toxicity towards normal cells HUVEC (in words) [3] | IC50 (MCF-7 (breast cancer)) [mg/L] | antiproliferative/cytotoxic activity against MCF-7 (in words) (MCF-7 (breast cancer)) | SI (selectivity index) MCF-7 (MCF-7 (breast cancer)) | IC50 (Ca Ski (cervical cancer)) [mg/L] | SI (selectivity index) Ca Ski (Ca Ski (cervical cancer)) | further results
1 | CC1=C[C@]2(O)O[C@@]3(CC2=C(C)C)[C@@H](C)CC[C@@H]13 [Compound 5, curcumenol] | 24.8 ± 2.7 (≈ 106 µM) | moderate inhibitory activity | 1.0 | 17.3 ± 1.2 (≈ 73.8 µM) | moderate inhibitory activity | 1.5 | induction of apoptotic death occurred; also recorded: better inducing apoptosis capacity in comparison to curcumenone (3) | cell shrinkage, loss of contact with adjacent cells, and decrease in cell numbers | 25.9 ± 1.4 (≈ 111 µM) | low toxicity | 9.3 ± 0.3 (≈ 39.7 µM) | strong antiproliferative activity | 2.8 | 18.5 ± 1 (≈ 78.9 µM) | 1.4 | mechanism-based P450 inhibition (P450): not a mechanism-based inhibitor
2 | CC(=O)CC[C@@H]1[C@H]2CC(=C(C)C)C(=O)C[C@@]12C [Compound 3, curcumenone] | 43.3 ± 6.2 (≈ 185 µM) | – | 1.2 | 39.8 ± 4.2 (≈ 170 µM) | – | 1.3 | induction of apoptotic death occurred | cell shrinkage, loss of contact with adjacent cells, and decrease in cell numbers | 50 ± 8.6 (≈ 213 µM) | slight toxicity | 8.3 ± 1 (≈ 35.4 µM) | strong antiproliferative activity | 6.0 | > 100 | 0.5 | effect on alcohol-treated mice [4]: protective effect; effect on liver alcohol dehydrogenase activity [5]: acceleration of liver alcohol dehydrogenase activity; effect on D-galactosamine/lipopolysaccharide-induced acute liver injury [6]: effective protective effect; toxicity towards normal cells HUVEC (in words) ([3]; listed as curcumenone): low toxicity; antiproliferative/cytotoxic activity against Ca Ski (in words) (Ca Ski (cervical cancer); MTT assay): did not show any antiproliferative activity
3 | C/C1=C\CC[C@@]2(C)O[C@@H]2CC(C)(C)/C=C/C1=O [Compound 8, zerumbone epoxide] | 13.7 ± 2.7 (≈ 58.5 µM) | good cytotoxic effect | 1.0 | 10.8 ± 1.9 (≈ 46.1 µM) | good cytotoxic effect | 1.3 | – | – | 14.2 ± 1.1 (≈ 60.6 µM) | slight toxicity | 24.1 ± 0.1 (≈ 103 µM) | – | 0.6 | 34.5 ± 0.6 (≈ 147 µM) | 0.4 | cytotoxic effects [7]: possessed cytotoxic effects
